The subject of this assay is P388 leukemia ip, CD2F1 mice, survival T/C. The experiment in a line: NCI In Vivo Anticancer Drug Screen. Data for tumor model P388 Leukemia (intraperitoneal) in CD2F1 (CDF1) mice. The following applies: endpoint: median survival time, higher = longer survival. The method in brief:
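Mice carrying the transplanted tumor received test compound or vehicle. Survival was recorded in each group, and the value is the treated-group measurement divided by that of the vehicle-treated control group.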

Where [1] appears, read: dose: 50.0 mg/kg/injection, schedule: Q01DX005 (ip), vehicle: saline with Tween-80.
[2] abbreviates: dose: 100.0 mg/kg/injection, schedule: Q01DX005 (ip), vehicle: saline with Tween-80.
Setting [3] is: dose: 200.0 mg/kg/injection, schedule: Q01DX005 (ip), vehicle: saline with Tween-80.

“And” between values parts separate entries of the source, which are not always exact repeats. Identical values can stand only once. Inconclusive results and toxic doses are left out.

As to `COC(=O)[C@@]12OC[C@]34[C@H]([C@@H](O)[C@@H]1O)[C@@]1(C)CC(=O)C(O)=C(C)[C@@H]1C[C@H]3OC(=O)[C@H](OC(=O)/C=C(\C)C(C)C)[C@@H]24`, the T/C is 108 % of control (dose: 0.03 mg/kg/injection, schedule: Q01DX009 (ip), vehicle: saline + alcohol); 107 % of control (dose: 0.06 mg/kg/injection, schedule: Q01DX009 (sc), vehicle: saline + alcohol); 152 % of control (dose: 0.06 mg/kg/injection, schedule: Q03HX024 (ip), vehicle: saline + alcohol); 160 % of control (dose: 0.13 mg/kg/injection, schedule: Q01DX009 (ip), vehicle: saline with Tween-80); 108 % of control (dose: 0.13 mg/kg/injection, schedule: Q01DX009 (sc), vehicle: saline + alcohol); 151 % of control (dose: 0.13 mg/kg/injection, schedule: Q03HX024 (ip), vehicle: saline + alcohol). Further, the T/C reads like this: (dose: 0.25 mg/kg/injection, schedule: Q01DX009 (ip), vehicle: distilled water + Tween-80) 155 % of control and 177 % of control; (dose: 0.25 mg/kg/injection, schedule: Q01DX009 (ip), vehicle: saline with Tween-80) 156 % of control; (dose: 0.25 mg/kg/injection, schedule: Q01DX009 (sc), vehicle: saline + alcohol) 106 % of control; (dose: 0.25 mg/kg/injection, schedule: Q03HX024 (ip), vehicle: saline + alcohol) 164 % of control; (dose: 0.38 mg/kg/injection, schedule: Q01DX009 (ip), vehicle: saline + Tween-80 + alcohol) 155 % of control; (dose: 0.5 mg/kg/injection, schedule: Q01DX009 (ip), vehicle: distilled water + Tween-80) 155 % of control and 185 % of control. In addition, the T/C was 169 % of control (dose: 0.5 mg/kg/injection, schedule: Q01DX009 (ip), vehicle: saline with Tween-80); 102 % of control (dose: 0.5 mg/kg/injection, schedule: Q01DX009 (oral), vehicle: saline + alcohol); 110 % of control (dose: 0.5 mg/kg/injection, schedule: Q01DX009 (sc), vehicle: saline + alcohol); 101 % of control (dose: 0.5 mg/kg/injection, schedule: Q08DX002 (ip), vehicle: saline + alcohol); 111 % of control (dose: 1.0 mg/kg/injection, schedule: Q01DX001 (ip), vehicle: saline + alcohol); 109 % of control (dose: 1.0 mg/kg/injection, schedule: Q01DX001 (sc), vehicle: saline + alcohol). In addition, the T/C runs as follows: (dose: 1.0 mg/kg/injection, schedule: Q01DX005 (ip), vehicle: water) 155 % of control; (dose: 1.0 mg/kg/injection, schedule: Q01DX009 (ip), vehicle: distilled water + Tween-80) 158 % of control and 166 % of control; (dose: 1.0 mg/kg/injection, schedule: Q01DX009 (ip), vehicle: saline with Tween-80) 185 % of control; (dose: 1.0 mg/kg/injection, schedule: Q01DX009 (oral), vehicle: saline + alcohol) 104 % of control; (dose: 1.0 mg/kg/injection, schedule: Q08DX002 (ip), vehicle: saline + alcohol) 100 % of control; (dose: 2.0 mg/kg/injection, schedule: Q01DX001 (ip), vehicle: saline + alcohol) 116 % of control. For the same molecule, the T/C was 115 % of control (dose: 2.0 mg/kg/injection, schedule: Q01DX001 (sc), vehicle: saline + alcohol); 209 % of control (dose: 2.0 mg/kg/injection, schedule: Q01DX009 (ip), vehicle: saline with Tween-80); 104 % of control (dose: 2.0 mg/kg/injection, schedule: Q01DX009 (oral), vehicle: saline + alcohol); 102 % of control (dose: 2.0 mg/kg/injection, schedule: Q08DX002 (ip), vehicle: saline + alcohol); 120 % of control (dose: 4.0 mg/kg/injection, schedule: Q01DX001 (ip), vehicle: saline + alcohol); 106 % of control (dose: 4.0 mg/kg/injection, schedule: Q01DX001 (oral), vehicle: saline + alcohol). Further, the T/C by setting is: (dose: 125.0 micrograms/kg/injection, schedule: Q01DX009 (ip), vehicle: saline + alcohol) 124 % of control; (dose: 250.0 micrograms/kg/injection, schedule: Q01DX009 (ip), vehicle: saline + alcohol) 155 % of control; (dose: 500.0 micrograms/kg/injection, schedule: Q01DX009 (ip), vehicle: saline + alcohol) 171 % of control; (dose: 1000.0 micrograms/kg/injection, schedule: Q01DX009 (ip), vehicle: saline + alcohol) 160 % of control and 197 % of control; (dose: 2000.0 micrograms/kg/injection, schedule: Q01DX009 (ip), vehicle: saline + alcohol) 152 % of control.
In the case of `O=C(NC(=O)c1cc2cc(Cl)cc(Cl)c2oc1=O)Oc1ccccc1`, the T/C is, setting by setting: under setting [1], 89 % of control; under setting [2], 91 % of control; under setting [3], 98 % of control.
For `COn1nnc2cc(Cl)ccc21`, the T/C was 107 % of control (dose: 100.0 mg/kg/injection, schedule: Q04DX002 (ip), vehicle: saline with Tween-80); 98 % of control (dose: 200.0 mg/kg/injection, schedule: Q04DX002 (ip), vehicle: saline with Tween-80); 98 % of control (dose: 400.0 mg/kg/injection, schedule: Q04DX002 (ip), vehicle: saline with Tween-80).
As for `CN=C(c1ccc(NC(=O)c2cccc(C(=O)Nc3ccc(C(=NC)N(C)C)cc3)c2)cc1)N(C)C`, the T/C is, setting by setting: (dose: 1.56 mg/kg/injection, schedule: Q01DX005 (ip), vehicle: saline) 102 % of control; (dose: 3.12 mg/kg/injection, schedule: Q01DX005 (ip), vehicle: saline) 102 % of control; (dose: 6.25 mg/kg/injection, schedule: Q01DX005 (ip), vehicle: saline) 106 % of control and 96 % of control.
On to `CC1(C)N=C(N)N=C(N)N1c1ccc(CCCCc2ccc(S(=O)(=O)F)cc2)c(Cl)c1`, for which the T/C (dose: 13.2 mg/kg/injection, schedule: Q01DX009 (ip), vehicle: saline) was 154 % of control; the T/C (dose: 20.0 mg/kg/injection, schedule: Q01DX009 (ip), vehicle: saline) is 159 % of control; the T/C (dose: 30.0 mg/kg/injection, schedule: Q01DX009 (ip), vehicle: saline) is 159 % of control; the T/C (dose: 45.0 mg/kg/injection, schedule: Q01DX009 (ip), vehicle: saline) was 186 % of control.
Take `COc1ccc(CCNC(=O)c2ccc(CSc3ccc(Cl)cc3)o2)cc1OC`: the T/C by setting is: under setting [1], 105 % of control; under setting [2], 100 % of control; under setting [3], 93 % of control.
As to `NC(=O)c1nc2c(N)nc(-c3ccccc3)nc2nc1N`, the T/C is 94 % of control (dose: 150.0 mg/kg/injection, schedule: Q01DX009 (ip), vehicle: saline with Tween-80) and 95 % of control (dose: 300.0 mg/kg/injection, schedule: Q01DX009 (ip), vehicle: saline with Tween-80).
On to `CCN=C(N)Nc1nc(C)c2cc(Cl)ccc2n1`, for which the T/C reads like this: (dose: 12.5 mg/kg/injection, schedule: Q01DX005 (ip), vehicle: saline) 104 % of control; (dose: 25.0 mg/kg/injection, schedule: Q01DX005 (ip), vehicle: saline) 104 % of control; under setting [1], 109 % of control; (dose: 50.0 mg/kg/injection, schedule: Q01DX005 (ip), vehicle: saline) 111 % of control.
In the case of `CCOC(=O)C1C/C(=N\O)c2ccc(OC)c(OC)c2C1` (stereo not given), the T/C by setting is: (dose: 25.0 mg/kg/injection, schedule: Q01DX009 (ip), vehicle: other) 101 % of control; (dose: 50.0 mg/kg/injection, schedule: Q01DX009 (ip), vehicle: other) 91 % of control; (dose: 100.0 mg/kg/injection, schedule: Q01DX009 (ip), vehicle: other) 93 % of control; (dose: 200.0 mg/kg/injection, schedule: Q01DX009 (ip), vehicle: other) 97 % of control; (dose: 400.0 mg/kg/injection, schedule: Q01DX009 (ip), vehicle: other) 100 % of control.
Consider `CCCCOC(=O)CC(O)C(=O)OCCCC` (stereo not given), for which the T/C is 109 % of control (dose: 50.0 mg/kg/injection, schedule: Q01DX009 (ip), vehicle: saline with Tween-80); 119 % of control (dose: 100.0 mg/kg/injection, schedule: Q01DX009 (ip), vehicle: saline with Tween-80); 114 % of control (dose: 200.0 mg/kg/injection, schedule: Q01DX009 (ip), vehicle: saline with Tween-80).
As to `CC(=O)N(c1ccccc1)C1CCC2(C)C(=CCC3C2CCC2(C)C(C(C)CCCC(C)C)CCC32)C1` (stereo not given), the T/C was 100 % of control (dose: 100.0 mg/kg/injection, schedule: Q04DX003 (sc), vehicle: steriod suspending solution); 100 % of control (dose: 200.0 mg/kg/injection, schedule: Q04DX003 (sc), vehicle: steriod suspending solution); 104 % of control (dose: 400.0 mg/kg/injection, schedule: Q04DX003 (sc), vehicle: steriod suspending solution).
Regarding `CC1(C)c2ccccc2N2C(c3ccccc3)=NN(c3ccccc3)C21C` (stereo not given), the T/C is 100 % of control (dose: 60.0 mg/kg/injection, schedule: Q01DX005 (ip), vehicle: saline with Tween-80) and 100 % of control (dose: 120.0 mg/kg/injection, schedule: Q01DX005 (ip), vehicle: saline with Tween-80).

Values taken from PubChem BioAssay AID330 (DTP/NCI, 2004).
